From PMC4773911 (Journal of the American Chemical Society, 2015)
Entries after “also recorded” stand apart in the source; their conditions may differ.

Legend:
[1] = molecular target: T1, DAGL-α (Homo sapiens, UniProt Q9Y4D2); type: biochemical; details: pre-incubated at IC80 concentration; MB064 labeling; n=3
T1 sequence (Q9Y4D2 1-1042): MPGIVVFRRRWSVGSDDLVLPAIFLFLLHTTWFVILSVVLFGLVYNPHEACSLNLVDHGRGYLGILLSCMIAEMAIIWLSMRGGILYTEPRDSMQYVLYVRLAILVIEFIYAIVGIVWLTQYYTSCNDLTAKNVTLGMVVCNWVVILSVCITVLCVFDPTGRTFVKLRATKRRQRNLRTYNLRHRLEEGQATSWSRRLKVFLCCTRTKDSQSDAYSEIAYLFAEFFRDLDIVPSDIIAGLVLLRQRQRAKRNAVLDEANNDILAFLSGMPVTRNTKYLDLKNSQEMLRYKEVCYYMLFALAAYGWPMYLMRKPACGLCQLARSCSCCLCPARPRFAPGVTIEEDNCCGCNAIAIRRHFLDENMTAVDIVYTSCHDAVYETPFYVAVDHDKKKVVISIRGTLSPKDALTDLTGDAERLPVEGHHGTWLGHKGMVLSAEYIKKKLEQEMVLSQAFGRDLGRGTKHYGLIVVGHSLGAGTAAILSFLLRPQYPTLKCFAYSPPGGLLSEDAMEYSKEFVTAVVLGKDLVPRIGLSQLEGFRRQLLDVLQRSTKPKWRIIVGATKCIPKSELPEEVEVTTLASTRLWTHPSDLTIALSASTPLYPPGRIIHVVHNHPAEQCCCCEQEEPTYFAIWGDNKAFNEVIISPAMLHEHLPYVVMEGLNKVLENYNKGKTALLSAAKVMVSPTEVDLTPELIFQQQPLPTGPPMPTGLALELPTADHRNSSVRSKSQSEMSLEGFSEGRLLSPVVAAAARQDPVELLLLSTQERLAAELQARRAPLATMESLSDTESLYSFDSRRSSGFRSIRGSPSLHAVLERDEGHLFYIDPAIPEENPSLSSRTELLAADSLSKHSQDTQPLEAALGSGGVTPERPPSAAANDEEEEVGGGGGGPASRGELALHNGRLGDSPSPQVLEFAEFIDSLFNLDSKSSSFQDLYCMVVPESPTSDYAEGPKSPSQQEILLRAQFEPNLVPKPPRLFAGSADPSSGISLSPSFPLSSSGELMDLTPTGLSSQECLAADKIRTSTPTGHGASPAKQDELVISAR

[2] = system: mouse liver; details: cited from earlier work
[3] = molecular target: T1, DAGL-α; experiment: real-time, fluorescence-based
[4] = molecular target: T2, FAAH (Mus musculus, UniProt O08914); experiment: competitive ABPP with TAMRA-FP in mouse brain membrane proteome, FAAH labeling; type: binding
T2 sequence (O08914 1-579): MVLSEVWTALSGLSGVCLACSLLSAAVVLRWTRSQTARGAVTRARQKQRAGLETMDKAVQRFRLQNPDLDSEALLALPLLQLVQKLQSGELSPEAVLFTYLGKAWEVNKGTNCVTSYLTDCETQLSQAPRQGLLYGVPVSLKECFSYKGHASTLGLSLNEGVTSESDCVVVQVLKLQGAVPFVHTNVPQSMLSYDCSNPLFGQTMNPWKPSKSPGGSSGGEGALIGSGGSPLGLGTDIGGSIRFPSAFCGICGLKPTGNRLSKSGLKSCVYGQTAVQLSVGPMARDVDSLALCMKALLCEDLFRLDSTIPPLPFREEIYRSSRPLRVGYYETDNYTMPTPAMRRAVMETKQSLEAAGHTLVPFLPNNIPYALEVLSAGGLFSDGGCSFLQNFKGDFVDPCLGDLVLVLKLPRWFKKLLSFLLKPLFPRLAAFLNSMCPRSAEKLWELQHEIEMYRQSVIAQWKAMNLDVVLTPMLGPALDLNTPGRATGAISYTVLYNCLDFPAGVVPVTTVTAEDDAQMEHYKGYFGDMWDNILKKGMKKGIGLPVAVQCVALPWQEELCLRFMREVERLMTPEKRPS

[5] = system: serine hydrolases; type: binding, mouse; details: 10 μM, 30 min
[6] = system: human PC3 cells; experiment: lipid levels in human PC3 cells; type: cell-based
[7] = system: ABHD6; experiment: ABPP in Neuro2A proteome, ABHD6; type: binding, mouse
[8] = system: Neuro2A cells; experiment: targeted lipidomics after in situ treatment of Neuro2A cells; type: cell-based, mouse; details: in situ 1h, 37 °C, n=4
[9] = molecular target: T2, FAAH; experiment: ABPP in Neuro2A proteome, FAAH; type: binding
[10] = system: CA1 pyramidal neurons in hippocampal slices; experiment: depolarization-induced suppression of inhibition; type: cell-based, mouse; details: 10 μM
[11] = molecular target: T3, recombinant human MAGL (Homo sapiens, UniProt Q99685); experiment: biochemical assay using recombinant human MAGL
T3 sequence (Q99685 1-303): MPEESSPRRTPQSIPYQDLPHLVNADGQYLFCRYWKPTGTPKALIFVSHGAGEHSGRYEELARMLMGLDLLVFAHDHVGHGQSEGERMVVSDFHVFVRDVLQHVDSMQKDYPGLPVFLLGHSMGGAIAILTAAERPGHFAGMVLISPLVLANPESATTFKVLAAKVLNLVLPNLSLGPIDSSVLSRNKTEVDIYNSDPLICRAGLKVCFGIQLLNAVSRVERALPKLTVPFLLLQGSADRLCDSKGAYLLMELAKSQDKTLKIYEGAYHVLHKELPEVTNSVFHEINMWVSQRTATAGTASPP

[12] = system: serine hydrolases; type: binding, mouse
[13] = system: endogenously expressed DAGL-β; experiment: competitive ABPP with MB064 in mouse spleen membrane proteome; type: binding; details: 10 μM, MB064 1.0 μM
[14] = system: DAGL-α; type: binding, mouse; details: 10 μM
[15] = molecular target: T4, hDAGL-β (Homo sapiens, UniProt Q8NCG7); experiment: competitive ABPP with MB064 on membranes of hDAGL-β transfected HEK293T cells; type: binding; details: n=3
T4 sequence (Q8NCG7 1-672): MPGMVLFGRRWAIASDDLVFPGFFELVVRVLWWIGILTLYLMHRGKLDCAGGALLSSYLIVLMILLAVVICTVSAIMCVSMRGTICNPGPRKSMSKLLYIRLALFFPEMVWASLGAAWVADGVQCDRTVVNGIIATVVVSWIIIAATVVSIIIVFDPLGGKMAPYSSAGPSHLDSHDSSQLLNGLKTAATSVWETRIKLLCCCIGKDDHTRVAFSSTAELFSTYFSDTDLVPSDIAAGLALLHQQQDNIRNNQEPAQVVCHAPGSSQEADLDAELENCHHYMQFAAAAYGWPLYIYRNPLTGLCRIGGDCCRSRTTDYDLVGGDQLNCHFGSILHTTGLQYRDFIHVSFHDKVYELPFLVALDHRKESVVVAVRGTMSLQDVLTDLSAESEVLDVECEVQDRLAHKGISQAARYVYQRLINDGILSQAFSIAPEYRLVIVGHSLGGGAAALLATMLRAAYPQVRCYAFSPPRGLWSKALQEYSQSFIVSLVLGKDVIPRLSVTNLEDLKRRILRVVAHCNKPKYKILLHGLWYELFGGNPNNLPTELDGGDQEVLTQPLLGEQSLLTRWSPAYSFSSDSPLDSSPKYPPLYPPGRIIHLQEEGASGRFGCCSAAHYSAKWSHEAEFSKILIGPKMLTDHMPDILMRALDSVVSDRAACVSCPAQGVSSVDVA

[16] = molecular target: T5, recombinant human ABHD6 (Homo sapiens, UniProt Q9BV23); experiment: biochemical assay using recombinant human ABHD6
T5 sequence (Q9BV23 1-337): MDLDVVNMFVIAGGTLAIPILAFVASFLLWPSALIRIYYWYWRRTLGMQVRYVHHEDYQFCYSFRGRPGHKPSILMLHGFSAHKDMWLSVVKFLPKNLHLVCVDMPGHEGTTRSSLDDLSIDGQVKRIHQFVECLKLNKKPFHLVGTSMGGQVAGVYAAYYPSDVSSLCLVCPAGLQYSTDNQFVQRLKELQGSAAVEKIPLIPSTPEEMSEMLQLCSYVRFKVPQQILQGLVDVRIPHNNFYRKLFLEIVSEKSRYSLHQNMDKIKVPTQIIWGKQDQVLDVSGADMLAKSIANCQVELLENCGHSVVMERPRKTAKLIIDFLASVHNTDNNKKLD

[17] = molecular target: cannabinoid CB1 receptor (Homo sapiens, UniProt P21554); experiment: cannabinoid CB1 receptor radioligand displacement assay; type: binding
Sequence of cannabinoid CB1 receptor (P21554 whole entry): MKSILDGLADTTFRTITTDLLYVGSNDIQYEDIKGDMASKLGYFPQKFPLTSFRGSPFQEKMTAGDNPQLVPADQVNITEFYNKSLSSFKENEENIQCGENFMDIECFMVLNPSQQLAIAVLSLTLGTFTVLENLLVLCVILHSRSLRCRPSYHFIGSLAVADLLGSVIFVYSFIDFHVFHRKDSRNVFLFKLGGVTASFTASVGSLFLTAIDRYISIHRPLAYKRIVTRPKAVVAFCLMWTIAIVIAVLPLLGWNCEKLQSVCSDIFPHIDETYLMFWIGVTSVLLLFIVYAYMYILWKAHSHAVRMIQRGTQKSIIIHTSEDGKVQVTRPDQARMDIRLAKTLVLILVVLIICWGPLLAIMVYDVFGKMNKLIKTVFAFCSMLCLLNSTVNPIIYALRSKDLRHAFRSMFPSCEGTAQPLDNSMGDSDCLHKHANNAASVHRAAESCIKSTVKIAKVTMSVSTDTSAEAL

[18] = molecular target: T1, DAGL-α; experiment: radiometric assay using 1-[14C]oleoyl-2-arachidonoyl-sn-glycerol as substrate; type: biochemical; details: 1-[14C]oleoyl-2-arachidonoyl-sn-glycerol 20 μm; n=2
[19] = molecular target: T4, hDAGL-β; experiment: biochemical assay with para-nitrophenylbutyrate as a surrogate substrate; details: n=4
[20] = molecular target: T1, DAGL-α; experiment: colorimetric assay using para-nitrophenylbutyrate as a surrogate substrate; type: biochemical
[21] = molecular target: T6, endogenous DAGL-β (Mus musculus, UniProt Q91WC9); experiment: competitive ABPP with MB064 in Neuro2A proteome; type: binding; details: Neuro2A proteome in vitro, n=3
T6 sequence (Q91WC9 1-669): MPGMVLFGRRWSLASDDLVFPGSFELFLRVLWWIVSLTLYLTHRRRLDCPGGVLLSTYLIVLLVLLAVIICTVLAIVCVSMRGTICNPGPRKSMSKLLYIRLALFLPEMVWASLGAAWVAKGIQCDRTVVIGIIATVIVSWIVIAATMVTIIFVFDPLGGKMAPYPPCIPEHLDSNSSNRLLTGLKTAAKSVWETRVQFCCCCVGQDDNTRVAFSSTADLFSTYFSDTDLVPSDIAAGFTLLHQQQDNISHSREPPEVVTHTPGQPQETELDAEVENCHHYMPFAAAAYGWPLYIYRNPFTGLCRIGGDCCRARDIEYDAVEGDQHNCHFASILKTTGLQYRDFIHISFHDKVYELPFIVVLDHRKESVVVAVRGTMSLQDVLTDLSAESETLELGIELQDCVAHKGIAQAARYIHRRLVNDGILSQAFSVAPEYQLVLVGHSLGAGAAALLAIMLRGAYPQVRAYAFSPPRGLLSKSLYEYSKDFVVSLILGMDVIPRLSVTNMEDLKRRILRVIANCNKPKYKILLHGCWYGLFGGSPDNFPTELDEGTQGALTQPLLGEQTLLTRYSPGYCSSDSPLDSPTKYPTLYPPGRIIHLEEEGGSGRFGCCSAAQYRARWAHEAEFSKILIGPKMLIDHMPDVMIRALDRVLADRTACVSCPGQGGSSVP

Structure (SMILES): O=C(N1CCCCC1Cc1ccccc1)n1cc(-c2ccc(-c3ccccc3)cc2)nn1 (centres unmarked) [KT-109, reference compound]
- recovery of DAGL-α activity after size exclusion chromatography [1]: No recovery
- arachidonic acid levels [2]: reduction

Structure (SMILES): O=C(CCCCCc1ccccc1)c1nc2ncccc2o1 [LEI104]
- IC50 [3]: 501 nM
- IC50 [4]: 15.8 nM

Structure (SMILES): Cc1ccc(-c2cnc3nc(C(=O)CCCCCc4ccccc4)oc3c2)cc1 [LEI105]
- recovery of DAGL-α activity after size exclusion chromatography [1]: reversibility
- reduction of labeling of the detected serine hydrolases, except DAGL-α [5]: ≤ 20%
- 2-AG levels [6]: reduced
- arachidonic acid levels [6]: reduced
- substrate levels of DAGL (DAG species) [6]: no change
- inhibition of ABHD6 [7]: no inhibition
- cellular 2-AG levels [8]: concentration-dependent reduction; also recorded: dose dependently decreased
- cellular anandamide (AEA) levels [8]: unaffected; also recorded: constant
- inhibition of FAAH [9]: no inhibition
- DSI in hippocampal slices (in words) [10]: reduced
- amplitude of stimulus-evoked inhibitory post-synaptic currents (IPSC) ([10]; pre-incubation and continuous application): 271 ± 22 pA
- DSI, reduction in IPSC amplitude averaged over the first 15 sec after induction ([10]; n=15, p<0.05 vs control): 18 ± 7%
- pKi on MAGL [11]: < 5
- inhibition of labeling of other bands (TAMRA-FP and MB064) ([12]; 10 μM): did not inhibit labeling of any other band
- inhibition of endogenous DAGL-β labeling/activity in spleen [13]: could be inhibited; also recorded: can block labeling
- fold increase compared to LEI104 ([3]; natural substrate assay): 40 fold
- block of FAAH labeling ([4]; up to a concentration of 10 μM, TAMRA-FP, n=3): did not block FAAH labeling
- reduction of DAGL-α labeling [14]: over 70%
- pIC50 of hDAGL-β labeling by MB064 [15]: 7.4 ± 0.07
- pKi on ABHD6 [16]: < 5
- displacement of 3H-CP55940 from the CB1 receptor ([17]; 10 μM): did not displace
- pKi on cannabinoid CB1 receptor ([17]; radioligand displacement): < 5
- pIC50, radiometric assay [18]: 6.6
- pIC50 on human DAGL-β [19]: 8.1 ± 0.07
- fold more potent than LEI104 ([20]; para-nitrophenylbutyrate assay, vs LEI104): ~10 fold
- pIC50 on human DAGL-α ([20]; para-nitrophenylbutyrate surrogate substrate, n=4): 8.5 ± 0.06
- pIC50 of DAGL-β labeling [21]: 7.3 ± 0.07

Structure (SMILES): CCCCCCCCCCC[C@@H](C[C@@H]1OC(=O)[C@H]1CCCCCC)OC(=O)[C@@H](NC=O)[C@@H](C)CC [OMDM-188, reference compound]
- number of serine hydrolases whose labeling was blocked ([12]; 1 μM, including ABHD6 and ABHD12): at least 4
